Assay [1] has as its target T1, human STAT6/pIL-4Rα (Homo sapiens, UniProt P42226).
T1 construct: histidine tag
T1 sequence (P42226 123-658): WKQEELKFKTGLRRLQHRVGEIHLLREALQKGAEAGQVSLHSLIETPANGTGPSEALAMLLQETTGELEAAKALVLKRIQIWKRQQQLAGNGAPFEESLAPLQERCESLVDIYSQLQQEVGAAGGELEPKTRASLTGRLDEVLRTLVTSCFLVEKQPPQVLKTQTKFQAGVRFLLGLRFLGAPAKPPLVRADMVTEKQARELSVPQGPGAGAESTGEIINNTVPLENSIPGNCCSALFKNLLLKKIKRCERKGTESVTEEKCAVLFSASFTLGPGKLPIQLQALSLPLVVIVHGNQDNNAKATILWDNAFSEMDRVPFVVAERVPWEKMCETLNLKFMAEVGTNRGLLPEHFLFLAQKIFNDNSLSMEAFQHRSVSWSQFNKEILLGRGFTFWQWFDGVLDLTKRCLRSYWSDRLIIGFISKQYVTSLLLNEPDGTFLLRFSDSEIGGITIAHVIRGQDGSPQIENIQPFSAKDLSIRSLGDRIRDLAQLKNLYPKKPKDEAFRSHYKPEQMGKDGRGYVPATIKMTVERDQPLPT
Briefly: Binding inhibitory activity between human STAT6/pIL-4Rα by fluorescence polarization method. The note with it: rhSTAT6 (123-658) / FAM-pIL-4Rα peptide. In a few lines: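 His-tagged human STAT6 (residues 123–658, E. coli-expressed) was preincubated with compound for 30 min at RT in the dark, in buffer e.g. 50 mM NaCl, 10 mM HEPES pH 7.0, 1 mM DTT, 1 mM EDTA, 0.01% NP-40. FAM-pIL-4Rα peptide was then added for 30 min. Fluorescence polarisation was read at 485/535 nm, with IC50 interpolated linearly between two points flanking 50%.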

The subject of assay [2] is human STAT6. Briefly: Human STAT6 dependent reporter activity (IL-4 stimulated STAT6 reporter assay using STAT6-HEK293 cells). The assay is classed as cell-based. The note with it: Homo sapiens, IL-4 stimulation, luciferase activity, read-out: Inhibition rate (%); for inhibition at 0.1 µM: compound 0.1 μmol/L; for inhibition at 1 µM: compound 1 μmol/L.

Molecule `COCCn1c(-c2ccc(-n3c(C)nn(C)c3=O)cc2)cc2cc(C(F)(F)F)cc(CNc3cccc(C(N)=O)c3)c21` [Ex. 139] registered an IC50 in assay [1] of 1.94 µM. In assay [2], the inhibition at 0.1 µM turned out to be 8% and the inhibition at 1 µM is 69%.
The molecule `CCn1c(-c2ccc(N3C(=O)C(C)CC3C)cc2)cc2cc(C(F)(F)F)nc(C(=O)Nc3cccc(C(N)=O)c3)c21` (stereo not shown) [Ex. 134] came in with an IC50 in assay [1] of 0.37 µM. In addition, in assay [2], the inhibition at 0.1 µM stood at 48% and the inhibition at 1 µM was determined as 99%.
`COCCn1c(-c2ccc(N3C(=O)C(C)CC3C)cc2)cc2ccnc(C(=O)Nc3ccc(F)c(C(N)=O)c3)c21` (stereo not shown) [Ex. 137] registered an IC50 in assay [1] of 0.28 µM. In addition, in assay [2], the inhibition at 0.1 µM came out at 62%.
Consider `COCCn1c(-c2ccc(-n3c(C)nn(C)c3=O)cc2)cc2cc(C(F)(F)F)nc(C(=O)Nc3ccc(F)c(C(N)=O)c3)c21` [Ex. 90], for which the IC50 in assay [1] was 0.28 µM. Moreover, in assay [2], the inhibition at 0.1 µM was determined as 63% and the inhibition at 1 µM turned out to be 99%.
Consider `CCn1c(-c2ccc(-n3cnn(C)c3=O)cc2)cc2cc(Br)cc(C(=O)Nc3ccc(F)c(C(N)=O)c3)c21` [Ex. 9], for which the IC50 in assay [1] amounted to 0.45 µM. Moreover, in assay [2], the inhibition at 0.1 µM was found to be 10% and the inhibition at 1 µM turned out to be 76%.
The corresponding values for `CCn1c(-c2ccc(N3C(=O)C(C)CC3C)cc2)nc2cc(C(F)(F)F)cc(C(=O)Nc3cccc(C(N)=O)c3)c21` (racemic) [Ex. 11] are 0.44 µM, 43% and 92%.
`CCn1c(-c2ccc(-n3c(C)nn(C)c3=O)cc2)cc2cc(C(F)(F)F)cc(C(=O)Nc3cccc(C(=O)NC)c3)c21` [Ex. 40] yielded an IC50 in assay [1] of 0.29 µM. Also, in assay [2], the inhibition at 0.1 µM amounted to 92% and the inhibition at 1 µM came to 100%.
In assay [1], `COCCn1c(-c2ccc(-n3c(C)nn(C)c3=O)cc2)cc2cc(C(F)(F)F)nc(C(=O)Nc3cccc(C(N)=O)c3F)c21` [Ex. 97] showed an IC50 of 0.29 µM. Also, the inhibition at 0.1 µM in assay [2] turned out to be 89%.
Take `Cc1nn(C)c(=O)n1-c1ccc(-c2cc3cc(C(F)(F)F)cc(C(=O)Nc4cccc(C(N)=O)c4F)c3n2CC2(C#N)CC2)cc1` [Ex. 125]: the concentration for half-maximal inhibition (IC50) in assay [1] amounted to 0.26 µM. Also, in assay [2], the inhibition at 0.1 µM worked out at 52% and the inhibition at 1 µM turned out to be 99%.

The record behind these values is patent US20260092054A1, “FUSED RING COMPOUND AND PHARMACEUTICAL CONTAINING SAME” (KAKEN PHARMACEUTICAL CO., LTD., priority 2022, published 2026).
